Test results from patent US20180368410A1, “MICROBIOCIDAL OXADIAZOLE DERIVATIVES” (SYNGENTA PARTICIPATIONS AG, priority 2015, published 2018).

Tests used:
[1] = system: Puccinia recondita f. Sp. Tritici; experiment: Puccinia recondita f. sp. tritici / wheat / leaf disc preventative (brown rust); assay type: in vivo, Puccinia recondita f. sp. tritici on wheat cv. Kanzler; conditions: foliar, 200 ppm in the applied formulation, inoculated 1 day after application, assessed 7 to 9 days after application, vs untreated control leaf disks, read-out: disease control
Protocol: Leaf disks or leaf segments of various plant species are cut from plants grown in a greenhouse. The cut leaf disks or segments are placed in multiwell plates (24-well format) onto water agar. The leaf disks are sprayed with a test solution before (preventative) or after (curative) inoculation. Compounds to be tested are prepared as DMSO solutions (max. 10 mg/ml) which are diluted to the appropriate concentration with 0.025% Tween20 just before spraying. The inoculated leaf disks or segments are incubated under defined conditions (temperature, relative humidity, light, etc.) according to the respective test system. A single evaluation of disease level is carried out 3 to 14 days after inoculation, depending on the pathosystem. Percent disease control relative to the untreated check leaf disks or segments is then calculated. Wheat leaf segments cv. Kanzler were placed on agar in multiwell plates (24-well format) and sprayed with the formulated test compound diluted in water. The leaf disks were inoculated with a spore suspension of the fungus 1 day after application. The inoculated leaf segments were incubated at 19′C and 75% relative humidity (rh) under a light regime of 12 hours light/12 hours darkness in a climate cabinet and the activity of a compound was assessed as percent disease control compared to untreated when an appropriate level of disease damage appears in untreated check leaf segments (7 to 9 days after application). The following compounds at 200 ppm in the applied formulation give at least 80% disease control in this test when compared to untreated control leaf disks under the same conditions, which show extensive disease development.

[2] = system: Puccinia recondita f. Sp. Triticil; experiment: Puccinia recondita f. sp. tritici / wheat / leaf disc curative (brown rust); assay type: in vivo, Puccinia recondita f. sp. tritici on wheat cv. Kanzler; conditions: foliar, 200 ppm in the applied formulation, applied 1 day after inoculation, assessed 6 to 8 days after application, vs untreated control leaf disks, read-out: disease control
Protocol: Leaf disks or leaf segments of various plant species are cut from plants grown in a greenhouse. The cut leaf disks or segments are placed in multiwell plates (24-well format) onto water agar. The leaf disks are sprayed with a test solution before (preventative) or after (curative) inoculation. Compounds to be tested are prepared as DMSO solutions (max. 10 mg/ml) which are diluted to the appropriate concentration with 0.025% Tween20 just before spraying. The inoculated leaf disks or segments are incubated under defined conditions (temperature, relative humidity, light, etc.) according to the respective test system. A single evaluation of disease level is carried out 3 to 14 days after inoculation, depending on the pathosystem. Percent disease control relative to the untreated check leaf disks or segments is then calculated.
Wheat leaf segments cv. Kanzler are placed on agar in multiwell plates (24-well format). The leaf segments are then inoculated with a spore suspension of the fungus. Plates were stored in darkness at 19° C. and 75% relative humidity. The formulated test compound diluted in water was applied 1 day after inoculation. The leaf segments were incubated at 19° C. and 75% relative humidity under a light regime of 12 hours light/12 hours darkness in a climate cabinet and the activity of a compound was assessed as percent disease control compared to untreated when an appropriate level of disease damage appears in untreated check leaf segments (6 to 8 days after application).
The following compounds at 200 ppm in the applied formulation give at least 80% disease control in this test when compared to untreated control leaf disks under the same conditions, which show extensive disease development.

[3] = system: Glomerella Lacenarium (Colletotrichum lacenarium); experiment: Glomerella lagenarium (Colletotrichum lagenarium) liquid culture / cucumber / preventative (anthracnose); assay type: cell-based; conditions: 20 ppm in the applied formulation, liquid culture in PDB, 24° C., inhibition of growth measured photometrically 3 to 4 days after application, vs untreated control, read-out: disease control
Protocol: Mycelia fragments or conidia suspensions of a fungus prepared either freshly from liquid cultures of the fungus or from cryogenic storage, are directly mixed into nutrient broth. DMSO solutions of the test compound (max. 10 mg/ml) are diluted with 0.025% Tween20 by a factor of 50 and 10 μl of this solution is pipetted into a microtiter plate (96-well format). The nutrient broth containing the fungal spores/mycelia fragments is then added to give an end concentration of the tested compound. The test plates are incubated in the dark at 24° C. and 96% relative humidity. The inhibition of fungal growth is determined photometrically after 2 to 7 days, depending on the pathosystem, and percent antifungal activity relative to the untreated check is calculated.
Conidia of the fungus from cryogenic storage are directly mixed into nutrient broth (PDB—potato dextrose broth). After placing a (DMSO) solution of test compound into a microtiter plate (96-well format), the nutrient broth containing the fungal spores is added. The test plates are incubated at 24° C. and the inhibition of growth is measured photometrically 3 to 4 days after application.
The following compounds at 20 ppm in the applied formulation give at least 80% disease control in this test when compared to untreated control under the same conditions, which show extensive disease development.

Row | SMILES | pest or weed control at 200 ppm [1] [%] | pest or weed control at 200 ppm [2] [%] | inhibition of growth at 20 ppm [3] [%]
1 | CC1(C(=O)NCc2ccc(-c3noc(C(F)(F)F)n3)c(F)c2F)COC1 [Compound 1.85, N-[[2,3-difluoro-4-[5-(trifluoromethyl)-1,2,4-oxadiazol-3-yl]phenyl]methyl]-3-methyl-oxetane-3-carboxamide] | ≥ 80 | ≥ 80 | ≥ 80
2 | CC1(C(=O)NCc2ccc(-c3noc(C(F)(F)F)n3)cc2Cl)CC1 [Compound 1.79, N-[[2-chloro-4-[5-(trifluoromethyl)-1,2,4-oxadiazol-3-yl]phenyl]methyl]-1-methyl-cyclopropanecarboxamide] |  |  | ≥ 80
3 | O=C(NCc1ccc(-c2noc(C(F)(F)F)n2)cc1Cl)C1CCOC1 (stereo not shown) [Compound 1.82, N-[[2-chloro-4-[5-(trifluoromethyl)-1,2,4-oxadiazol-3-yl]phenyl]methyl] tetrahydrofuran-3-carboxamide] |  |  | ≥ 80
4 | CC1(C(=O)NCc2ccc(-c3noc(C(F)(F)F)n3)cn2)CC1 [Compound 1.90, 1-methyl-N-[[5-[5-(trifluoromethyl)-1,2,4-oxadiazol-3-yl]-2-pyridyl]methyl] cyclopropanecarboxamide] | ≥ 80 | ≥ 80 | ≥ 80
5 | CC1(C(=O)NCc2ccc(-c3noc(C(F)(F)F)n3)cc2F)COC1 [Compound 1.71, N-[[2-fluoro-4-[5-(trifluoromethyl)-1,2,4-oxadiazol-3-yl]phenyl]methyl]-3-methyl-oxetane-3-carboxamide] | ≥ 80 | ≥ 80 | ≥ 80
6 | O=C(NCc1ccc(-c2noc(C(F)(F)F)n2)cc1)c1ccccc1C(F)(F)F [Compound 1.43, 2-(trifluoromethyl)-N-[[4-[5-(trifluoromethyl)-1,2,4-oxadiazol-3-yl]phenyl]methyl]benzamide] | ≥ 80 |  | 
7 | O=C(NCc1ccc(-c2noc(C(F)(F)F)n2)c(F)c1F)C1CCOC1 (stereo not shown) [Compound 1.83, N-[[2,3-difluoro-4-[5-(trifluoromethyl)-1,2,4-oxadiazol-3-yl]phenyl]methyl] tetrahydrofuran-3-carboxamide] | ≥ 80 | ≥ 80 | ≥ 80
8 | O=C(NCc1ccc(-c2noc(C(F)(F)F)n2)cc1F)C1CC1 [Compound 1.47, N-[[2-fluoro-4-[5-(trifluoromethyl)-1,2,4-oxadiazol-3-yl]phenyl]methyl] cyclopropanecarboxamide] | ≥ 80 | ≥ 80 | ≥ 80
9 | O=C(NCc1ccc(-c2noc(C(F)(F)F)n2)cc1Cl)C1CCCO1 (stereo not shown) [Compound 1.50, N-[[2-chloro-4-[5-(trifluoromethyl)-1,2,4-oxadiazol-3-yl]phenyl]methyl]tetrahydrofuran-2-carboxamide] | ≥ 80 | ≥ 80 | ≥ 80
10 | O=C(NCc1ccc(-c2noc(C(F)(F)F)n2)cn1)C1CCC1 [Compound 1.88, N-[[5-[5-(trifluoromethyl)-1,2,4-oxadiazol-3-yl]-2-pyridyl]methyl] cyclobutanecarboxamide] | ≥ 80 | ≥ 80 | ≥ 80
11 | O=C(CC1CC1)NCc1ccc(-c2noc(C(F)(F)F)n2)cn1 [Compound 1.87, 2-cyclopropyl-N-[[5-[5-(trifluoromethyl)-1,2,4-oxadiazol-3-yl]-2-pyridyl]methyl]acetamide] | ≥ 80 | ≥ 80 | ≥ 80
12 | O=C(NCc1ccc(-c2noc(C(F)(F)F)n2)cc1F)c1ccccc1Cl [Compound 1.48, 2-chloro-N-[[2-fluoro-4-[5-(trifluoromethyl)-1,2,4-oxadiazol-3-yl]phenyl]methyl]benzamide] | ≥ 80 |  | ≥ 80
13 | O=C(NCc1ccc(-c2noc(C(F)(F)F)n2)cn1)C1CC1 [Compound 1.45, N-[[5-[5-(trifluoromethyl)-1,2,4-oxadiazol-3-yl]-2-pyridyl]methyl] cyclopropanecarboxamide] | ≥ 80 | ≥ 80 | ≥ 80
14 | O=C(NCc1ccc(-c2noc(C(F)(F)F)n2)cc1)c1c(Cl)cccc1Cl [Compound 1.42, 2,6-dichloro-N-[[4-[5-(trifluoromethyl)-1,2,4-oxadiazol-3-yl]phenyl]methyl]benzamide] | ≥ 80 |  | 
15 | CC1(C(=O)NCc2ccc(-c3noc(C(F)(F)F)n3)cc2Cl)COC1 [Compound 1.84, N-[[2-chloro-4-[5-(trifluoromethyl)-1,2,4-oxadiazol-3-yl]phenyl]methyl]-3-methyl-oxetane-3-carboxamide] | ≥ 80 |  | ≥ 80
16 | O=C(CC1CC1)NCc1ccc(-c2noc(C(F)(F)F)n2)cc1Cl [Compound 1.74, N-[[2-chloro-4-[5-(trifluoromethyl)-1,2,4-oxadiazol-3-yl]phenyl]methyl]-2-cyclopropyl-acetamide] |  |  | ≥ 80
17 | O=C(NCc1ccc(-c2noc(C(F)(F)F)n2)cc1C(F)(F)F)C1CCCO1 (stereo not shown) [Compound 1.52, N-[[2-(trifluoromethyl)-4-[5-(trifluoromethyl)-1,2,4-oxadiazol-3-yl]phenyl]methyl]tetrahydrofuran-2-carboxamide] |  |  | ≥ 80
18 | O=C(NCc1ccc(-c2noc(C(F)(F)F)n2)cc1F)C1CCOC1 (stereo not shown) [Compound 1.70, N-[[2-fluoro-4-[5-(trifluoromethyl)-1,2,4-oxadiazol-3-yl]phenyl]methyl] tetrahydrofuran-3-carboxamide] | ≥ 80 | ≥ 80 | ≥ 80
19 | COc1cc(-c2noc(C(F)(F)F)n2)ccc1CNC(=O)C1CCCO1 (stereo not shown) [Compound 1.51, N-[[2-methoxy-4-[5-(trifluoromethyl)-1,2,4-oxadiazol-3-yl]phenyl]methyl]tetrahydrofuran-2-carboxamide] |  |  | ≥ 80
20 | O=C(NCc1ccc(-c2noc(C(F)(F)F)n2)cc1Cl)C1CC1 [Compound 1.81, N-[[2-chloro-4-[5-(trifluoromethyl)-1,2,4-oxadiazol-3-yl]phenyl]methyl] cyclopropanecarboxamide] |  |  | ≥ 80
21 | COc1ccc(C2(C(=O)NCc3ccc(-c4noc(C(F)(F)F)n4)cc3)CC2)cc1 [Compound 1.38, 1-(4-methoxyphenyl)-N-[[4-[5-(trifluoromethyl)-1,2,4-oxadiazol-3-yl]phenyl]methyl] cyclopropanecarboxamide] | ≥ 80 |  | ≥ 80
22 | Cc1cc(C(=O)NCc2ccc(-c3noc(C(F)(F)F)n3)cc2)c(C)o1 [Compound 1.41, 2,5-dimethyl-N-[[4-[5-(trifluoromethyl)-1,2,4-oxadiazol-3-yl]phenyl]methyl]furan-3-carboxamide] | ≥ 80 | ≥ 80 | 
